Data as given in US20030017568A1, “Smooth muscle myosin phosphatase associated kinase” (priority 2001, published 2003).

Assays:
ZIP-like-kinase = ZIP-like-kinase activity and phosphorylation in treated rabbit bladder smooth muscle (immunoprecipitates); format: cell-based
[1] = tested on: ZIP-like-kinase (SMPP-1M associated kinase, MYPT-kinase); experiment: In vitro kinase assay against the Thr697 peptide, native ZIP-like-kinase (MYPT-kinase) compared with ROK; format: biochemical, cow; conditions: levels needed versus ROK
Description: Kinase and phosphatase assays. Kinase assays included 10 μL of enzyme diluted in 25 mM Hepes, pH 7.4, 1 mM DTT, and 100 μM Thr^697 peptide. Reactions were started with addition of 20 μL Mg^2+ ATP (5 mM MgCl2 and 0.1 mM ATP (5000 cpm/nmol) and carried out at 25° C. Reactions were terminated after 20 min with the addition of 100 μL of 20 mM H3PO4. Aliquots (100 μL) of the reaction mixture were spotted on to P81 paper and washed four times with 20 mM H3PO4. The P81 paper was placed into 1.5 mL Eppendorf tubes and ^32P incorporation was determined by scintillation counting. Phosphatase assays were carried out as described (Shirazi et al, J. Biol. Chem. 269:31598-31606 (1994)).
Purification of the SMPP-1M associated kinase. The SMPP-1M associated kinase was isolated from cow bladders following initial steps outlined for purification of SMPP-1M from pig bladder (Shirazi et al, J. Biol. Chem. 269:31598-31606 (1994)). Following extraction of the myofibrillar pellet, the extract was diluted with 2 volumes of buffer C (20 mM Tris, pH 7.5, 25 mM MgCl2, and 1 mM DTT with protease inhibitors), clarified by centrifugation (100,000 g, 45 min) and applied to a 5.0×10-cm column of ethylenediamine γ-linked ATP Sepharose equilibrated in buffer C. […] The purity of SMPP-1M kinase was assessed by SDS-PAGE and silver staining.

ROK = conditions: hypertensive mice; cited from earlier work
MYPT1 = MYPT1 phosphorylation in 32P-labeled intact smooth muscle (rabbit bladder); format: cell-based; conditions: carbachol stimulation

COC[C@@H]([C@H](O)[C@H](O)C(=O)NCC[C@H](C)c1nc(/C=C/C[C@@H]2O[C@]3(C[C@@H](O)[C@@H]2C)O[C@H]([C@H](C[C@H](O)[C@H](C)[C@H](O)[C@H](C)/C=C(C)/C(C)=C/C=C/C(C)=C\C#N)OC)[C@H](OP(=O)(O)O)C3(C)C)co1)N(C)C [calyculin A]
Reduction of ZIP-like-kinase activation in the absence of calyculin A (ZIP-like-kinase; carbachol-treated bladder without calyculin A): about 50%

C[C@@H](N)[C@H]1CC[C@H](C(=O)Nc2ccncc2)CC1 [Y-27632]
Inhibition of native ZIP-like-kinase (MYPT-kinase): levels relative to those for ROK [1]: 200 fold
Inhibition of ZIP-like-kinase activity (ZIP-like-kinase; 10 μM, carbachol and calyculin A treated bladder): significant inhibition
Blood pressure (ROK): decreased blood pressure

C[N+](C)(C)CCOC(N)=O [carbachol]
ZIP-like-kinase phosphorylation and activation (ZIP-like-kinase): phosphorylated and activated
MYPT1 phosphorylation state (four phosphopeptides; major site Thr697) (MYPT1): increased
